Assays:
[1] = target: T1, HpSHMT (H. pylori SHMT; HP0183 gene product) (Helicobacter pylori, UniProt P56089); test: coupled alcohol dehydrogenase assay, NADH oxidation at […] nm; type: biochemical; conditions: 20 uM SHMT, 250 uM PLP, 250 uM NADH, 50 mM phosphate pH 8.0, room temperature; folate-independent retroaldol cleavage
T1 construct: gene glyA; full-length, C-terminal 6xHis tag (pQE60), expressed in E. coli SG 13009; predicted monomer 46,776 Da; homodimer; purified largely as apoprotein
T1 sequence (P56089 1-416): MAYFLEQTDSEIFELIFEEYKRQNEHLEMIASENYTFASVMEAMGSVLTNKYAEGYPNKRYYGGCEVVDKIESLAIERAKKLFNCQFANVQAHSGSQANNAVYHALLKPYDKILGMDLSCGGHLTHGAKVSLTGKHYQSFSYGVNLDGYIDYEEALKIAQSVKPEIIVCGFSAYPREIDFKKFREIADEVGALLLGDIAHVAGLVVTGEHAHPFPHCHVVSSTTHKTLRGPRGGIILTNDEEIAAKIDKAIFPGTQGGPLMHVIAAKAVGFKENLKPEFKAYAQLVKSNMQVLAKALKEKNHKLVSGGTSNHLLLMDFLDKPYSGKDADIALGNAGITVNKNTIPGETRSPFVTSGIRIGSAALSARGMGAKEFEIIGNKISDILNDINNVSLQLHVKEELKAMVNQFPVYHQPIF

[2] = target: T1, HpSHMT (H. pylori SHMT; HP0183 gene product); test: absorbance at […] nm of enzyme-PLP-glycine-folate ternary complex, MTHF titration; type: binding; conditions: read-out: apparent KFol
[3] = target: T1, HpSHMT (H. pylori SHMT; HP0183 gene product); test: absorbance at […] nm of enzyme-PLP-glycine-folate ternary complex; type: binding; conditions: fixed 5 mM glycine with 250 uM PLP and 0-2 mM MTHF, pH 8.0, room temperature
[4] = target: the molecule itself; test: crystal structure; HpSHMT apoprotein, hanging drop vapour diffusion, 20% PEG 3350, 0.2 M sodium acetate, room temperature; space group P212121, two monomers in the asymmetric unit; 2.8 Å

C[C@H](O)[C@H](N)C(=O)O [L-allothreonine]
coupled alcohol dehydrogenase assay, NADH oxidation at 340 nm [1]: it is able to transform L-allothreonine to acetaldehyde, thus confirming its activity as SHMT

Nc1nc2c(c(=O)[nH]1)N1CN(c3ccc(C(=O)N[C@@H](CCC(=O)O)C(=O)O)cc3)C[C@H]1CN2 [MTHF]
Kd [2]: 300 µM

NCC(=O)O [glycine]
absorbance at 502 nm of enzyme-PLP-glycine-folate ternary complex [3]: corresponding to the intermediate ternary enzyme-PLP-glycine-folate complex

B1: Serine hydroxymethyltransferase from Helicobacter pylori 26695 (HP0183 gene product) (enzyme, Helicobacter pylori strain 26695, UniProt P56089 1-416, looked up)
chain: MAYFLEQTDSEIFELIFEEYKRQNEHLEMIASENYTFASVMEAMGSVLTNKYAEGYPNKRYYGGCEVVDKIESLAIERAKKLFNCQFANVQAHSGSQANNAVYHALLKPYDKILGMDLSCGGHLTHGAKVSLTGKHYQSFSYGVNLDGYIDYEEALKIAQSVKPEIIVCGFSAYPREIDFKKFREIADEVGALLLGDIAHVAGLVVTGEHAHPFPHCHVVSSTTHKTLRGPRGGIILTNDEEIAAKIDKAIFPGTQGGPLMHVIAAKAVGFKENLKPEFKAYAQLVKSNMQVLAKALKEKNHKLVSGGTSNHLLLMDFLDKPYSGKDADIALGNAGITVNKNTIPGETRSPFVTSGIRIGSAALSARGMGAKEFEIIGNKISDILNDINNVSLQLHVKEELKAMVNQFPVYHQPIF
notes: Serine hydroxymethyltransferase (glyA, ORF HP0183) of Helicobacter pylori strain 26695; gene amplified with primers SA36/SA37 (from the ATG to the end of the ORF) and inserted into pQE60; residues 3-416 modelled in the crystal; Homodimer by crystal structure and dynamic light scattering; Predicted mass per monomer 46,776 Da; also called HpSHMT; SHMT; source: E. coli SG 13009 (pREP4), pQE60, …
stoichiometry N [4]: 2

Source: publication PMC6294363, “Structural and functional insight into serine hydroxymethyltransferase from Helicobacter pylori” (PLoS ONE, 2018)
